Experimental data from publication PMC3692405, “Disease-associated mutations in CNGB3 promote cytotoxicity in photoreceptor-derived cells” (Molecular Vision, 2013).
Read-outs that look alike come from different tables or passages of the source.

Biological target: T1, WT human CNGA3 plus WT CNGB3 heteromeric channels (Homo sapiens, UniProt Q16281+Q9NQW8)
T1 construct: expressed in transfected cells; host or cells: Xenopus laevis oocytes injected with cRNA transcribed from pGEMHE constructs
T1 sequence (Q16281 1-694): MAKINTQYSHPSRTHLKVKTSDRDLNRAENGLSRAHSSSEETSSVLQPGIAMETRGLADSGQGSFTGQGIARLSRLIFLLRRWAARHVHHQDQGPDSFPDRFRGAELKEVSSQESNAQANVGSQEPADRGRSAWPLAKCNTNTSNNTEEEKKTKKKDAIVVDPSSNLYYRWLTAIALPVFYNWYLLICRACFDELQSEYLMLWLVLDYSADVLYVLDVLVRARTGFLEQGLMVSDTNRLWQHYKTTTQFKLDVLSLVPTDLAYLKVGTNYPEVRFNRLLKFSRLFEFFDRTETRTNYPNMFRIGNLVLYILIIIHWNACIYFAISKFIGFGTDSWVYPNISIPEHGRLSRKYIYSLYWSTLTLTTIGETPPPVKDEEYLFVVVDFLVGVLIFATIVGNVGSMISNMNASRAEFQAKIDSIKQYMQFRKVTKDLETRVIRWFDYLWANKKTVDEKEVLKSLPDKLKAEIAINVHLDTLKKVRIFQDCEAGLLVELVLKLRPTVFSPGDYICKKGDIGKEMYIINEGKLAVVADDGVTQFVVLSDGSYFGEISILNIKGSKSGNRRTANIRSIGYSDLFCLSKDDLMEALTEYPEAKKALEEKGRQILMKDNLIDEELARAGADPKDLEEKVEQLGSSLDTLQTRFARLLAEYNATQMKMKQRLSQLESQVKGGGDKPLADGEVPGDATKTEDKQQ
T1 sequence (Q9NQW8 1-809): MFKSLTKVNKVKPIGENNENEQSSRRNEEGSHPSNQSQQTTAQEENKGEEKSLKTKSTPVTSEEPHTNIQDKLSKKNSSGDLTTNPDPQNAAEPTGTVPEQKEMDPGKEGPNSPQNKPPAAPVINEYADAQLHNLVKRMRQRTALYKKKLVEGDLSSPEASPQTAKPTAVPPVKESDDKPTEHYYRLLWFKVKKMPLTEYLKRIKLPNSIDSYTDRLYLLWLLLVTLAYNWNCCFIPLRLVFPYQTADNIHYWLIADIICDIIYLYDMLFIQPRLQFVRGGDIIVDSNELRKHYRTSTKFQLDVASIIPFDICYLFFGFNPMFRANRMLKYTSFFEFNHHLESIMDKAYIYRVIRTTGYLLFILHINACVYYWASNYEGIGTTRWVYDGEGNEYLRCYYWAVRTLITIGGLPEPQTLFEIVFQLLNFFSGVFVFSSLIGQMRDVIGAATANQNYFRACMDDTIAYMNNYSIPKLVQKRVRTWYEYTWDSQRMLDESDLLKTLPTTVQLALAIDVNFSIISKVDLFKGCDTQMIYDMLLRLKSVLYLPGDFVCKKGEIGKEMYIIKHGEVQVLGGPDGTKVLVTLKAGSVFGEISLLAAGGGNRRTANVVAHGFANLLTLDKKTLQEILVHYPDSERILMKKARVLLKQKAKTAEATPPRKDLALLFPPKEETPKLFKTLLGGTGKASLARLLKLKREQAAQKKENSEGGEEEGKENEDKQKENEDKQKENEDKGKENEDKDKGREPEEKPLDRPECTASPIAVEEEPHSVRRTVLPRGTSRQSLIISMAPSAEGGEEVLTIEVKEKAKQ
Assay: Inside-out patch-clamp recording of channels expressed in Xenopus oocytes (WT heteromeric)
Type: biochemical
Protocol: For heterologous expression in Xenopus laevis oocytes, identical amounts of cDNA were linearized using SphI or NheI, and capped cRNA was transcribed in vitro using the T-7 RNA polymerase mMESSAGE mMACHINE® kit (Ambion, Austin, TX). cRNA concentrations and relative amounts were determined by denaturing gel electrophoresis and KODAK 1D image analysis software (Rochester, NY), as well as by spectrophotometry. […] Oocytes were incubated in ND96 (96 mM NaCl, 2 mM KCl, 1.8 mM CaCl2, 1 mM MgCl2, and 5 mM HEPES, pH 7.6, supplemented with 10 μg/ml gentamycin).
Two to seven days after microinjection of cRNA, patch-clamp experiments were performed using the inside-out configuration with an Axopatch 200B amplifier (Axon Instruments, Foster City, CA). Recordings were made at 20–23 °C. Data were acquired using Pulse software (HEKA Elektronik, Lambrecht, Germany). Current traces were elicited by voltage steps from a holding potential of 0 mV to +80 mV, then to −80 mV and back to 0 mV. Initial pipette resistances were 0.4–0.8 megaohms. Intracellular and extracellular solutions contained 130 mM NaCl, 0.2 mM EDTA, and 3 mM HEPES (pH 7.2). Intracellular solutions were exchanged using an RSC-160 rapid solution changer (Molecular Kinetics, Indianapolis, IN). Currents in the absence of cyclic nucleotides were subtracted. For channel activation by CPT-cGMP or CPT-cAMP, dose–response data were fitted with the Hill equation, I/Imax=([cNMP]^h/(K1/2^h + [cNMP]^h)), where I is the current amplitude at +80 mV, Imax is the maximum current elicited by saturating concentration of ligand, [cNMP] is the ligand concentration, K1/2 is the apparent ligand affinity, and h is the Hill slope. We measured sensitivity to block by L-cis-diltiazem (RBI, Natick, MA) applied to the intracellular face of the patch in the presence of 0.1 μM CPT-cGMP. Data were fit with a modified Hill equation in the form I blocker/I=(K1/2^h/(K1/2^h + [blocker]^h)). Data were analyzed using Igor (Wavemetrics, Lake Oswego, OR), SigmaPlot, and SigmaStat (Systat Software Inc., San Jose, CA). All values are reported as the mean±standard error of the mean of n experiments unless otherwise indicated. Statistical significance was determined using a Student t test or Mann–Whitney rank sum test, and a p value of <0.05 was considered significant.

SMILES | Hill slope h, CPT-cGMP activation (+80 mV, Hill fit, mean±SEM, n=13) | EC50 (+80 mV, Hill fit, mean±SEM, n=13, read-out: apparent CPT-cGMP affinity K1/2, CPT-cGMP (channel activation)) [µM] | maximum patch current density (Imax/area) (+80 mV, saturating CPT-cGMP (4 μM), mean±SEM, n=13) [pA/μm^2] | Hill slope h, CPT-cGMP, representative dose-response (representative patch, Figure 1B) | EC50 (representative patch, Figure 1B, read-out: K1/2,CPT-cGMP, representative dose-response) [µM] | potency relative to unmodified cGMP for channel activation (unmodified cGMP values from refs 19, 26) | relative agonist efficacy Imax, CPT-cAMP/Imax, CPT-cGMP (+80 mV, CPT-cAMP 100 μM vs CPT-cGMP 4 μM, mean±SEM, n=10) | Hill slope h, CPT-cAMP activation (Hill fit, mean±SEM, n=10) | EC50 (Hill fit, mean±SEM, n=10, read-out: apparent affinity K1/2, CPT-cAMP (channel activation)) [µM] | Hill slope h, CPT-cAMP, representative dose-response (representative patch, Figure 5A) | EC50 (representative patch, Figure 5A, read-out: K1/2,CPT-cAMP, representative dose-response) [µM]
Nc1nc2c(nc(Sc3ccc(Cl)cc3)n2[C@@H]2O[C@@H]3COP(=O)(O)O[C@H]3[C@H]2O)c(=O)[nH]1 [CPT-cGMP, 8-(4-chlorophenylthio) guanosine 3′,5′-cyclic monophosphate] | 1.5±0.05 | 0.254 ± 0.0181 | 55.1±10.9 | 1.5 | 0.248 | 80–100 fold | – | – | – | – | –
Nc1ncnc2c1nc(Sc1ccc(Cl)cc1)n2[C@@H]1O[C@@H]2COP(=O)(O)O[C@H]2[C@H]1O [CPT-cAMP, CPT-adenosine 3′,5′-cyclic monophosphate] | – | – | – | – | – | – | 0.25±0.03 | 1.7±0.1 | 28.1 ± 2.6 | 1.4 | 28.3
